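Cells were grown in 96-well plates and exposed to each compound for 48 hours at five concentrations; endpoints were interpolated linearly between bracketing concentrations, or set to the highest concentration if not reached. GI50 marks 50% less growth. TGI marks complete inhibition of growth.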
How the values were obtained:
Assay in all cases: growth of human tumour cells (NCI), 48 h
EKVX NSCLC = test system: EKVX NSCLC
HCT-116 colon = test system: HCT-116 colon
NCI/ADR-RES ovarian = test system: NCI/ADR-RES ovarian
RXF 393 renal = test system: RXF 393 renal
SK-OV-3 ovarian = test system: SK-OV-3 ovarian
SNB-75 CNS = test system: SNB-75 CNS
T-47D breast = test system: T-47D breast
U251 CNS = test system: U251 CNS

Row | SMILES | GI50 (EKVX NSCLC) | TGI (EKVX NSCLC) | GI50 (HCT-116 colon) | TGI (HCT-116 colon) | GI50 (NCI/ADR-RES ovarian) | TGI (NCI/ADR-RES ovarian) | GI50 (RXF 393 renal) | TGI (RXF 393 renal) | GI50 (SK-OV-3 ovarian) | TGI (SK-OV-3 ovarian) | GI50 (SNB-75 CNS) | TGI (SNB-75 CNS) | GI50 (T-47D breast) | TGI (T-47D breast) | GI50 (U251 CNS) | TGI (U251 CNS)
1 | CN1CCN(Cc2ccc(NC(=O)c3nc4ccc5[nH]ncc5c4c4c3CCC4)cc2C(F)(F)F)CC1 | 1.26 µM | 4.84 µM | 0.856 µM | 1.61 µM | 0.931 µM | 2.14 µM | 1.19 µM | 4.37 µM | 8.28 µM | 15.5 µM | 4.81 µM | 10.8 µM | 1.07 µM | 2.84 µM | 0.875 µM | 1.6 µM
2 | Cc1ncc(C(=O)Nc2ccc(CN3CCN(C)CC3)c(C(F)(F)F)c2)cc1C#Cc1cnc(N)c2ncccc12 | 1.27 µM | 3.62 µM | 0.218 µM | 2.4 µM | 1.34 µM | 3.76 µM | 0.0984 µM | 1.49 µM | 0.341 µM | 7.2 µM | 0.3 µM | 2.26 µM | 5.36 µM | 27.4 µM | 1.07 µM | 2.65 µM
3 | C#C[C@@]1(O)[C@@H](CO)O[C@@H](n2ccc3c(N)ncnc32)[C@@H]1O | 1.52 µM | 5.43 µM | 0.595 µM | 10.8 µM | 0.791 µM | 7.28 µM | 1.93 µM | 4.6 µM | 1.07 µM | 5.24 µM |  |  | 0.445 µM | 2.14 µM | 2.44 µM | 11.8 µM
4 | CCN(C(=O)CCl)C(C)(C)C(SSSC(c1ccc(Cl)cc1)C(C)(C)N(CC)C(=O)CCl)c1ccc(Cl)cc1 (centres undefined) |  |  | 4.47 µM | 18.5 µM | 8.31 µM | 24 µM | 2.95 µM | 13.8 µM | 15.3 µM | 31.5 µM | 13.3 µM | 29.5 µM | 5.3 µM | 26.3 µM | 4.72 µM | 17.7 µM
5 | CC1(C)N=C(N)N=C(N)N1c1cccc(CCCCc2ccccc2)c1 | 0.87 µM | 20.6 µM | 0.0501 µM | 17 µM | > 73.4 µM | > 100 µM | 2.28 µM | 17.2 µM | 1.98 µM | 17 µM | 3.06 µM | 16.3 µM | 1.28 µM | 16.2 µM | 0.0541 µM | 13.5 µM
6 | ClC1=NC(Cl)C(Cl)=N/C1=N\c1ncn[nH]1 (centres undefined) |  |  | 1.76 µM | 3.48 µM | 3.15 µM | 8.79 µM | 1.71 µM | 3.2 µM | 15.5 µM | 29 µM | 5.64 µM | 20.7 µM | 1.9 µM | 3.91 µM | 4.88 µM | 17 µM
7 | CN(C)C(=O)c1cc2cnc(Nc3ccc(-c4csc5c(=O)cc(N6CCNCC6)oc45)cc3)nc2n1C1CCCC1 | 1.49 µM | 6.53 µM | 0.318 µM | 1.4 µM | 6.9 µM | 32.7 µM | 0.27 µM | 1.03 µM | 6.21 µM | 21.2 µM | 0.313 µM | 2.03 µM | 0.949 µM | 9.5 µM | 0.561 µM | 1.96 µM
8 | O=C(O)c1ccc(NCc2nc3cc4ccccc4cc3[nH]2)cc1 |  | > 100 µM |  | > 100 µM |  | > 100 µM |  | > 100 µM |  | > 100 µM |  | > 100 µM |  | > 100 µM |  | > 100 µM
9 | N#CSCc1c(Cl)cccc1Cl | 3.94 µM | > 27.4 µM | 2.92 µM | > 39.3 µM | 6.25 µM | > 100 µM | 2.54 µM | 7.24 µM | 34 µM | > 100 µM | 20.2 µM | > 100 µM | 13.3 µM | > 96.1 µM | 3.83 µM | > 100 µM
10 | N#Cc1cccc(/C=C(/C(=O)c2ccccc2)c2ccccc2)c1 |  |  | 3.06 µM | 11.3 µM | 3.62 µM | > 100 µM | 3.72 µM | 10.8 µM | 5.53 µM | 20.8 µM | 4.69 µM | 17.5 µM | 3.78 µM | 17.3 µM | 3.43 µM | 12.5 µM
11 | O=C(NC(=S)NNC(=S)NNc1ccccc1)c1ccccc1 |  |  | 4.05 µM | > 100 µM | 5.26 µM | > 100 µM | 29 µM | > 100 µM | 44.2 µM | > 100 µM | 3.09 µM | > 100 µM | 3.24 µM | > 100 µM | 8.36 µM | > 100 µM
12 | CN(C)CCNC(=O)Cn1ccc(=O)c2ccc([N+](=O)[O-])cc21 |  | > 100 µM |  | > 100 µM |  | > 100 µM |  | > 100 µM |  | > 100 µM |  |  |  | > 100 µM |  | > 100 µM
13 | O=C(O)C[O][Sb][O]CC(=O)O | > 100 µM | > 100 µM | > 100 µM | > 100 µM | > 100 µM | > 100 µM | > 100 µM | > 100 µM |  |  | > 100 µM | > 100 µM | > 100 µM | > 100 µM | > 100 µM | > 100 µM
14 | C[C@]12CCC3c4ccc(O)cc4CCC3C1Cc1ccc(O)cc12 (some centres undefined) | 6.24 µM | 18.9 µM | 3.52 µM | 13.2 µM | 2.35 µM | 6.74 µM |  |  | 14.3 µM | 36.4 µM | 6.35 µM | 31.2 µM | 13.1 µM | 30.9 µM | 5.24 µM | 17.4 µM
15 | CC[C@H](C)[C@H](NC(=O)Nc1ccccc1)C(=O)N(C)[C@H](C[C@@H](OC(C)=O)c1nc(C(=O)N[C@@H](Cc2ccccc2)C[C@H](C)C(=O)OC)cs1)C(C)C | 5.36 µM | > 100 µM | 3.33 µM | > 100 µM | 54.2 µM | > 100 µM | 1.95 µM | 7.25 µM | 5.13 µM | > 100 µM |  |  |  |  | 3.16 µM | > 100 µM
16 | CCN(CC)CCCOc1cc(O)c2c(=O)cc(-c3ccccc3)oc2c1 | 13.2 µM | 26.4 µM |  |  | 13.3 µM | 27.1 µM | 11.6 µM | 28.8 µM | 14.3 µM | 28 µM | 8.36 µM | 22.3 µM | 15.5 µM | 33.4 µM | 10.6 µM | 22.4 µM
17 | O=C(NNc1ccccc1)OCc1ccccc1 |  |  | 12.4 µM | > 100 µM | 21.1 µM | > 100 µM | 91.6 µM | > 100 µM | > 100 µM | > 100 µM | > 100 µM | > 100 µM | 9.86 µM | > 100 µM | 70.6 µM | > 100 µM
18 | CC1=CC2=C(C(N)=O)C(=O)OC2(C)C(c2ccccc2)C1 (centres undefined) |  | > 100 µM |  | > 100 µM |  | > 100 µM |  |  |  | > 100 µM |  | > 100 µM |  |  |  | > 100 µM

Reference: PubChem BioAssay (NCI)
